molecular target: T1, KATP channels (Homo sapiens, UniProt O60706+Q14654); test: Potassium Channel Assay (FLIPR membrane potential, TE671 cells); format: cell-based; conditions: TE671 human medulloblastoma cells, Membrane Potential Assay Dye, room temperature, hyperpolarization from KATP channel opening
T1 construct: TE671 human medulloblastoma cells were obtained from ATCC; host or cells: TE671 human medulloblastoma cells
Experimental: TE671 human medulloblastoma cells were obtained from ATCC and grown in Dulbecco's modified Eagle's medium (DMEM) supplemented with 10% fetal bovine serum, 100 U/ml penicillin and 100 U/ml streptomycine.
The day before testing, the cells were plated in black 96-well plates at 50K/well. On the day of testing, the growth media was removed, then 100 μl of FLIPR buffer (20 mM HEPES, 120 mM NaCl, 2 mM KCl, 2 mM CaCl2, 1 mM MgCl2, 5 mM Glucose) and 100 μl of Membrane Potential Assay Dye (Molecular Devices) dissolved in FLIPR buffer were added to each well. The cells were incubated at room temperature for 15 to 30 min.
The effect of test compounds on KATP channels were evaluated on a fluorometric imaging plate reader (FLIPR, Molecular Devices) at room temperature. After a baseline period, 50 μl of 5× stock solution of test compound prepared in FLIPR buffer was added and fluorescent change was monitored for 3 minutes. After this reading, glyburide, a KATP channel blocker, was added to a final concentration of 5 μM to check the specificity of the test compound as a KATP channel openers. Hyperpolarization resulting from KATP channel opening was observed as a decrease in fluorescent intensity.
Representative compounds of the present invention were tested according to the procedure described above, with results as listed in Table 7, below.

T1 sequence (O60706 1-1549 isoform O60706-2): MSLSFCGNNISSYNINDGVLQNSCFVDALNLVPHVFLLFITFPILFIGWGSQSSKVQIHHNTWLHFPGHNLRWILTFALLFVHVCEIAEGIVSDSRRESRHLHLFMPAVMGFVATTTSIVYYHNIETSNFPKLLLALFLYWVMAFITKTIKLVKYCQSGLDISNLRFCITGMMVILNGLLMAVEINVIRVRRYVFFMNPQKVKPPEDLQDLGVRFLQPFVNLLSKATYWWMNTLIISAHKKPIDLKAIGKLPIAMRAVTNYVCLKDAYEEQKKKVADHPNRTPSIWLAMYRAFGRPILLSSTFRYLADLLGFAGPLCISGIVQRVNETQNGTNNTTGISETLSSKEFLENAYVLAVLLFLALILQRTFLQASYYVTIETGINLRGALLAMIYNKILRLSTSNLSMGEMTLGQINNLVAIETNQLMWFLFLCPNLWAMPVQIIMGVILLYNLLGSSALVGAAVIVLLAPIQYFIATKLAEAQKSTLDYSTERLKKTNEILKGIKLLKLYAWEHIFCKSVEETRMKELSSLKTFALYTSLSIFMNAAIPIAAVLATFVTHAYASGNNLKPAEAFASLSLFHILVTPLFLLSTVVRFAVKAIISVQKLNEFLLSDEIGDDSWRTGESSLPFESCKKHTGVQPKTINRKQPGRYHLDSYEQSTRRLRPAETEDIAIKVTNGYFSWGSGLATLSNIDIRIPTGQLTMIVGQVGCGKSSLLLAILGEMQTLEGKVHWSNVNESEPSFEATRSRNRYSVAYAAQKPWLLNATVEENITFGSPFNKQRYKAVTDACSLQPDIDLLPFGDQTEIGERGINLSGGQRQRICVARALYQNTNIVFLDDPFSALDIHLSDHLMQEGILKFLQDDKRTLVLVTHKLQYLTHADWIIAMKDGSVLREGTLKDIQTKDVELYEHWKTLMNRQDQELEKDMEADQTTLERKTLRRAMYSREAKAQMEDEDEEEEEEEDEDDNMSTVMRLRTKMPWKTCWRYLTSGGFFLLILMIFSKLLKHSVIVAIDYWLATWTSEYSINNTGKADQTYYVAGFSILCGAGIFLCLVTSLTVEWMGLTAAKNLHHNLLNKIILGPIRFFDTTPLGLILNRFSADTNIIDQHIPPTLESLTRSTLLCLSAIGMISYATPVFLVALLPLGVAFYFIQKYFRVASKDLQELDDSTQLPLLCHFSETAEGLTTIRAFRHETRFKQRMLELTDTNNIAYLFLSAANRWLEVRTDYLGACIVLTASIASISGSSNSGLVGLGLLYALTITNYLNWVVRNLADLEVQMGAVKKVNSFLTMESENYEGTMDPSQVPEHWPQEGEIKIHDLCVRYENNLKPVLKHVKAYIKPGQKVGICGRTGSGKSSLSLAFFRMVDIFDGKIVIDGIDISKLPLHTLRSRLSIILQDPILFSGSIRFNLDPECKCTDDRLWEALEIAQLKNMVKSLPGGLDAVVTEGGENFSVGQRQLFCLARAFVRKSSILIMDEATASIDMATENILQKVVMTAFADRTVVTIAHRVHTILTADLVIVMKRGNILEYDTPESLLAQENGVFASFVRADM
T1 sequence (Q14654 whole entry): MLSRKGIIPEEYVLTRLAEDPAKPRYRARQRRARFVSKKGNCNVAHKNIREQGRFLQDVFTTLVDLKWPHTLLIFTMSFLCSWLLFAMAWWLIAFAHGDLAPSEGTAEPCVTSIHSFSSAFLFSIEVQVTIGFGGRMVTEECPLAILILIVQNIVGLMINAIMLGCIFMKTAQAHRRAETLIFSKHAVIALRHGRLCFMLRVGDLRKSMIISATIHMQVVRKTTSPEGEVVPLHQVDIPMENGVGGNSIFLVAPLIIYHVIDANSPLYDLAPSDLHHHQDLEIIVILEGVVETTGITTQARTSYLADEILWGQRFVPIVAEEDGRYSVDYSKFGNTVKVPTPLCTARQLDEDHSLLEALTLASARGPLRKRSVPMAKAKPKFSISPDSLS

EC50 [µM]	SMILES
7.9	CC1(C)C=C(n2cncc2-c2ccc(Cl)cc2)c2cc(C#N)ccc2O1 [Compound 63, 4-[5-(4-Chloro-phenyl)-imidazol-1-yl]-2,2-dimethyl-2H-chromene-6-carbonitrile]
19.5	CC1(C)Oc2ccncc2[C@@H](Nc2nc3cc(Cl)ccc3s2)[C@@H]1O (racemic) [Compound 106, 4-(5-Chloro-benzothiazol-2-ylamino)-2,2-dimethyl-3,4-dihydro-2H-pyrano[3,2-c]pyridin-3-ol]
6.94	CC1(C)Oc2ccc(C#N)cc2[C@@H](Oc2noc3ccccc23)[C@@H]1O [Compound 23, (3S,4R)-4-(Benzo[d]isoxazol-3-yloxy)-3-hydroxy-2,2-dimethyl-chroman-6-carbonitrile]
8.44	CC1(C)Oc2ccc(C#N)cc2[C@@H](Nc2nc3cc(F)ccc3s2)[C@@H]1O (racemic) [Compound 5, 4-(5-Fluoro-benzothiazol-2-ylamino)-3-hydroxy-2,2-dimethyl-chroman-6-carbonitrile]
1.95	CC1(C)Oc2ccc(S(=O)(=O)c3cccc(F)c3)cc2[C@@H](n2oc3cc(Cl)ccc3c2=O)[C@@H]1O [Compound 100, 4R-6-Chloro-2-[6-(3-fluoro-benzenesulfonyl)-3S-hydroxy-2,2-dimethyl-chroman-4-yl]-R-benzo[d]isoxazol-3-one]
7.45	CC1(C)Oc2ccc(C#N)cc2[C@@H](n2cncc2-c2ccc(Cl)cc2)[C@@H]1O (racemic) [Compound 18, 4-[5-(4-Chloro-phenyl)-imidazol-1-yl]-3-hydroxy-2,2-dimethyl-chroman-6-carbonitrile]
4.1	CC1(C)Oc2ccc(C#N)cc2[C@@H](Oc2nsc3cc([N+](=O)[O-])ccc23)[C@@H]1O [Compound 41, 3S-Hydroxy-2,2-dimethyl-4R-(6-nitro-benzo[d]isothiazol-3-yloxy)-chroman-6-carbonitrile]
> 30	CC1(C)C=C(Oc2nsc3cc([N+](=O)[O-])ccc23)c2cc(C#N)ccc2O1 [Compound 69, (3S,4R)-2,2-Dimethyl-R-(6-nitro-benzo[d]isothiazol-3-yloxy)-2H-chromene-6-carbonitrile]
> 30	CC1(C)Oc2ccc(S(=O)(=O)N3CCCCC3)cc2[C@@H](Nc2noc3ccc(Cl)cc23)[C@@H]1O [Compound 88, 4R-(5-Chloro-benzo[d]isoxazol-3-ylamino)-2,2-dimethyl-6-(piperidine-1-sulfonyl)-chroman-3S-ol]
> 30	CC1(C)Oc2ccc(C#N)cc2[C@@H](SC2=NCCc3ccccc32)[C@@H]1O [Compound 42, 4R-(3,4-Dihydro-isoquinolin-1-ylsulfanyl)-3S-hydroxy-2,2-dimethyl-chroman-6-carbonitrile]
14.1	CC1(C)Oc2ccc(C#N)cc2[C@@H](n2sc3ccccc3c2=O)[C@@H]1O [Compound 30]
> 30	CC1(C)Oc2ccncc2[C@@H](Nc2nc3cc(Cl)ccc3o2)[C@@H]1O (racemic) [Compound 107, 4-(5-Chloro-benzoxazol-2-ylamino)-2,2-dimethyl-3,4-dihydro-2H-pyrano[3,2-c]pyridin-3-ol]
> 30	CCN(CC)S(=O)(=O)c1ccc2c(c1)[C@@H](Nc1noc3ccc(Cl)cc13)[C@H](O)C(C)(C)O2 (racemic) [Compound 80, 4R-(5-Chloro-benzo[d]isoxazol-3-ylamino)-3S-hydroxy-2,2-dimethyl-chroman-6-sulfonic acid diethylamide]
> 30	CC1(C)Oc2ccc(S(=O)(=O)c3ccccc3)cc2[C@@H](Oc2noc3cc(Cl)ccc23)[C@@H]1O [Compound 77, 6-Benzenesulfonyl-4R-(6-chloro-benzo[d]isoxazol-3-yloxy)-2,2-dimethyl-chroman-3S-ol]
> 30	CC1(C)Oc2ccc(C#N)cc2[C@@H](Oc2ccc(-c3ccc(Cl)cc3)nn2)[C@@H]1O (racemic) [Compound 56, 4-[6-(4-Chloro-phenyl)-pyridazin-3-yloxy]-3-hydroxy-2,2-dimethyl-chroman-6-carbonitrile]
20.4	CC1(C)Oc2ccc(C(=O)c3ccccc3)cc2[C@@H](Nc2noc3ccc(Cl)cc23)[C@@H]1O [Compound 92, [4R-(5-Chloro-benzo[d]isoxazol-3-ylamino)-3S-hydroxy-2,2-dimethyl-chroman-6-yl]-phenyl-methanone]
19.3	CC1(C)Oc2ccc(C#N)cc2[C@@H](Oc2noc3ccc(F)cc23)[C@@H]1O [Compound 70, (3S,4R)-4-(5-Fluoro-benzo[d]isoxazol-3-yloxy)-3-hydroxy-2,2-dimethyl-chroman-6-carbonitrile]
3.71	CC1(C)Oc2ccc(C#N)cc2[C@@H](Oc2cc(N)nc3ccccc23)[C@@H]1O (racemic) [Compound 8, 4-(2-Amino-quinolin-4-yloxy)-3-hydroxy-2,2-dimethyl-chroman-6-carbonitrile]
1.94	CC1(C)Oc2ccc(C#N)cc2[C@@H](Oc2ncnc3ccccc23)[C@@H]1O [Compound 40, (3S,4R)-3-Hydroxy-2,2-dimethyl-4-(quinazolin-4-yloxy)-chroman-6-carbonitrile]
0.26	CC1(C)Oc2ccc(C#N)cc2[C@@H](Oc2noc3cc(Cl)ccc23)[C@@H]1O [Compound 22, 4R-(6-Chloro-benzo[d]isoxazol-3-yloxy)-3S-hydroxy-2,2-dimethyl-chroman-6-carbonitrile]
15.4	CC1(C)Oc2ccc(C#N)cc2[C@@H](S(=O)(=O)c2noc3cc(Cl)ccc23)[C@@H]1O (racemic) [Compound 19, 4-(6-Chloro-benzo[d]isoxazole-3-sulfonyl)-3-hydroxy-2,2-dimethyl-chroman-6-carbonitrile]
5.19	CC1(C)Oc2ccc(S(=O)(=O)c3ccccc3)cc2[C@@H](Nc2noc3cc(Cl)ccc23)[C@@H]1O [Compound 73, (3S,4R)-6-Benzenesulfonyl-4R-(6-chloro-benzo[d]isoxazol-3-ylamino)-2,2-dimethyl-chroman-3S-ol]
1.5	CC1(C)Oc2ccc(C#N)cc2[C@@H](n2nccc2-c2ccc(Cl)cc2)[C@@H]1O [Compound 10, 4R-[5-(4-Chloro-phenyl)-pyrazol-1-yl]-3S-hydroxy-2,2-dimethyl-chroman-6-carbonitrile]
26.4	CC1(C)Oc2ccncc2[C@@H](Oc2ccn(-c3ccc(Cl)cc3)n2)[C@@H]1O (racemic) [Compound 109, 4-[1-(4-Chloro-phenyl)-1H-pyrazol-3-yloxy]-2,2-dimethyl-3,4-dihydro-2H-pyrano[3,2-c]pyridin-3-ol]
2.29	CC1(C)Oc2ccc(C#N)cc2[C@@H](Nc2nc(=O)c3cc(Cl)ccc3[nH]2)[C@@H]1O (racemic) [Compound 7, 4-(6-Chloro-4-oxo-1,4-dihydro-quinazolin-2-ylamino)-3-hydroxy-2,2-dimethyl-chroman-6-carbonitrile]
> 30	CCN(CC)S(=O)(=O)c1ccc2c(c1)[C@@H](n1oc3ccc(Cl)cc3c1=O)[C@H](O)C(C)(C)O2 [Compound 86, 4R-(5-Chloro-3-oxo-3H-benzo[d]isoxazol-2-yl)-3S-hydroxy-2,2-dimethyl-chroman-6-sulfonic acid diethylamide]
> 30	CC1(C)Oc2ccncc2[C@@H](n2ccnc2-c2ccc(Cl)cc2)[C@@H]1O (racemic) [Compound 111, 4-[2-(4-Chloro-phenyl)-imidazol-1-yl]-2,2-dimethyl-3,4-dihydro-2H-pyrano[3,2-c]pyridin-3-ol]

Source: patent US7812183B2, “Benzopyran derivatives as potassium channel openers” (Janssen Pharmaceutica NV, priority 2005, dated 2010)
